# Measurements published in publication PMC11121837, “Impact of Nitric Oxide-Release Kinetics on Antifungal Activity” (Journal of Fungi, 2024).
# Legend:
# [1] = test system: Candida auris; experiment: Susceptibility assay (MIC, broth microdilution, CLSI M27); format: cell-based; settings: for MIC / NO dose at MIC: Candidozyma auris; for MIC: 24 h; for NO dose at MIC: calculated NO dose at MIC
# [2] = test system: Cryptococcus neoformans; experiment: as above; format: cell-based; settings: for MIC / NO dose at MIC: Cryptococcus neoformans; for MIC: 72 h; for NO dose at MIC: calculated NO dose at MIC
# [3] = test system: C. neoformans (ATCC 208821); experiment: Checkerboard assay of NO donors with antifungals; format: cell-based, Cryptococcus neoformans
# [4] = test system: C. auris (MYA-5001); format: cell-based, Candida auris
# [5] = test system: C. albicans (ATCC MYA-2876); experiment: Checkerboard assay of NO donors with antifungals; format: cell-based, Candida albicans
# [6] = test system: C. auris (ATCC MYA-5001); experiment: Checkerboard assay of NO donors with antifungals; format: cell-based, Candida auris
# [7] = test system: Aspergillus fumigatus spores; experiment: Susceptibility assay for sporulating fungi (MIC, EUCAST E.Def.9.4); format: cell-based
# [8] = Characterization of NO release (chemiluminescence nitric oxide analyzer); format: physicochemical; settings: phosphate-buffered saline 10 mM, pH 7.4, 37 °C
# [9] = test system: MatTek EpiAirway tissue (AIR-100); experiment: cells; format: cell-based; settings: Homo sapiens, 24 h, read-out: IC50 (concentration needed to inhibit tissue viability by 50%)
# [10] = test system: Candida albicans; experiment: Susceptibility assay (MIC, broth microdilution, CLSI M27); format: cell-based; settings: for MIC: 24 h; for NO dose at MIC: calculated NO dose at MIC
# [11] = test system: C. neoformans (ATCC208821); format: cell-based, Cryptococcus neoformans
# [12] = Cryptococcus neoformans ATCC MYA-4566
# [13] = Cryptococcus neoformans ATCC MYA-4567
# [14] = NO donor combined with 5-fluorocytosine
# [15] = NO donor combined with amphotericin B
# [16] = NO donor combined with butenafine
# [17] = NO donor combined with caspofungin
# [18] = NO donor combined with fluconazole
# [19] = NO donor combined with miconazole
# [20] = ATCC14053, Candida albicans ATCC 14053
# [21] = ATCC18804, Candida albicans ATCC 18804
structure (smiles),measurement,setting,value
"NCCCNCCCCN(CCCN)/[N+]([O-])=N/O [SPER/NO, spermine/NO]",Selectivity Index (IC50 AIR-100 / MIC),[1]; C. auris ATCC MYA-5000,164
same,Selectivity Index (IC50 AIR-100 / MIC),[1]; C. auris ATCC MYA-5001,82
same,Selectivity Index (IC50 AIR-100 / MIC),[1]; C. auris ATCC MYA-5003,164
same,MIC,[1]; Candida auris ATCC MYA-5000,125 µg/mL
same,MIC,[1]; Candida auris ATCC MYA-5001,250 µg/mL
same,MIC,[1]; Candida auris ATCC MYA-5003,125 µg/mL
same,NO dose at MIC,[1]; Candida auris ATCC MYA-5000,19.2 µg/mL
same,NO dose at MIC,[1]; Candida auris ATCC MYA-5001,38.6 µg/mL
same,NO dose at MIC,[1]; Candida auris ATCC MYA-5003,19.2 µg/mL
same,Selectivity Index (IC50 AIR-100 / MIC),[2]; C. neoformans ATCC 208821,41
same,Selectivity Index (IC50 AIR-100 / MIC),[2]; C. neoformans ATCC MYA-4566,1079
same,Selectivity Index (IC50 AIR-100 / MIC),[2]; C. neoformans ATCC MYA-4567,263
same,MIC,[2]; [12],19 µg/mL
same,MIC,[2]; [13],78 µg/mL
same,MIC,"[2]; ATCC208821, 72 h, Cryptococcus neoformans ATCC 208821",500 µg/mL
same,NO dose at MIC,"[2]; ATCC208821, Cryptococcus neoformans ATCC 208821",76.8 µg/mL
same,NO dose at MIC,[2]; [12],3.08 µg/mL
same,NO dose at MIC,[2]; [13],12 µg/mL
same,checkerboard classification,[3]; [14],I (indifferent (I))
same,∑FIC,[3]; [14],≥ 1
same,checkerboard classification,[3]; [15],I (indifferent (I))
same,∑FIC,[3]; [15],≥ 1
same,checkerboard classification,[3]; [16],A (additive (A))
same,∑FIC,[3]; [16],0.562
same,checkerboard classification,[3]; [17],I (indifferent (I))
same,∑FIC,[3]; [17],≥ 1
same,checkerboard classification,[3]; [18],I (indifferent (I))
same,∑FIC,[3]; [18],≥ 1
same,checkerboard classification,[3]; [19],S (Synergistic (S))
same,∑FIC,[3]; [19],0.500
same,change in MIC or MFCs after serial passaging,[4],no changes
same,checkerboard classification,[5]; [14],I (indifferent (I))
same,∑FIC,[5]; [14],≥ 1
same,checkerboard classification,[5]; [15],I (indifferent (I))
same,∑FIC,[5]; [15],≥ 1
same,checkerboard classification,[5]; [16],I (indifferent (I))
same,∑FIC,[5]; [16],≥ 1
same,checkerboard classification,[5]; [17],I (indifferent (I))
same,∑FIC,[5]; [17],≥ 1
same,checkerboard classification,[5]; [18],I (indifferent (I))
same,∑FIC,[5]; [18],≥ 1
same,checkerboard classification,[5]; [19],S (Synergistic (S))
same,∑FIC,[5]; [19],0.265
same,checkerboard classification,[6]; [14],I (indifferent (I))
same,∑FIC,[6]; [14],≥ 1
same,checkerboard classification,[6]; [15],I (indifferent (I))
same,∑FIC,[6]; [15],≥ 1
same,checkerboard classification,[6]; [16],I (indifferent (I))
same,∑FIC,[6]; [16],≥ 1
same,checkerboard classification,[6]; [17],I (indifferent (I))
same,∑FIC,[6]; [17],≥ 1
same,checkerboard classification,[6]; [18],I (indifferent (I))
same,∑FIC,[6]; [18],≥ 1
same,checkerboard classification,[6]; [19],S (Synergistic (S))
same,∑FIC,[6]; [19],0.375
same,Selectivity Index (IC50 AIR-100 / MIC),[7]; A. fumigatus ATCC 1022,293
same,MIC,"[7]; ATCC1022, Aspergillus fumigatus ATCC 1022 spores",70 µg/mL
same,NO dose at MIC,"[7]; ATCC1022, Aspergillus fumigatus ATCC 1022 spores, calculated NO dose at MIC",10.7 µg/mL
same,"[NO]max, maximum instantaneous NO concentration",[8],7535 ± 222 ppb mg^−1
same,"[NO]t, total NO released over full duration",[8],5.1 ± 0.2 µmol/mg
same,"td, duration of NO release",[8],14.8 ± 2.9 h
same,IC50,[9],20000 µg/mL
same,MIC,[10]; [20],250 µg/mL
same,NO dose at MIC,[10]; [20],38.6 µg/mL
same,MIC,[10]; [21],150 µg/mL
same,NO dose at MIC,[10]; [21],23.1 µg/mL
same,Selectivity Index (IC50 AIR-100 / MIC),[10]; C. albicans ATCC 14053,82
same,Selectivity Index (IC50 AIR-100 / MIC),[10]; C. albicans ATCC 18804,137
same,Selectivity Index (IC50 AIR-100 / MIC),[10]; C. albicans ATCC MYA-2876,164
same,MIC,[10]; Candida albicans ATCC MYA-2876,125 µg/mL
same,NO dose at MIC,[10]; Candida albicans ATCC MYA-2876,19.2 µg/mL
same,outcome of passaging at sub-MIC dose,[11],yeast death after the second passage
